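Tested at 5 concentrations; 48 h exposure; 96-well plates; endpoints linearly interpolated, else capped at highest concentration. GI50 marks 50% less growth. TGI is the concentration that stops growth completely.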
Experiments:
Test in all cases: NCI tumour cell line growth inhibition, 48 h
786-0 renal = test system: 786-0 renal
A498 renal = test system: A498 renal
A549 NSCLC = test system: A549 NSCLC
ACHN renal = test system: ACHN renal
BT-549 breast = test system: BT-549 breast
CAKI-1 renal = test system: CAKI-1 renal
CCRF-CEM leukemia = test system: CCRF-CEM leukemia
COLO 205 colon = test system: COLO 205 colon
DU-145 prostate = test system: DU-145 prostate
HCC-2998 colon = test system: HCC-2998 colon
HCT-116 colon = test system: HCT-116 colon
HCT-15 colon = test system: HCT-15 colon
HL-60(TB) leukemia = test system: HL-60(TB) leukemia
HOP-62 NSCLC = test system: HOP-62 NSCLC
HOP-92 NSCLC = test system: HOP-92 NSCLC
HS 578T breast = test system: HS 578T breast
HT29 colon = test system: HT29 colon
IGROV1 ovarian = test system: IGROV1 ovarian
K-562 leukemia = test system: K-562 leukemia
KM12 colon = test system: KM12 colon
LOX IMVI melanoma = test system: LOX IMVI melanoma
MALME-3M melanoma = test system: MALME-3M melanoma
MCF7 breast = test system: MCF7 breast
MDA-MB-231 breast = test system: MDA-MB-231 breast
MDA-MB-435 = test system: MDA-MB-435
MOLT-4 leukemia = test system: MOLT-4 leukemia
NCI-H226 lung = test system: NCI-H226 lung
NCI-H23 lung = test system: NCI-H23 lung
NCI-H460 lung = test system: NCI-H460 lung
NCI-H522 lung = test system: NCI-H522 lung
NCI/ADR-RES ovarian = test system: NCI/ADR-RES ovarian
OVCAR-3 ovarian = test system: OVCAR-3 ovarian
OVCAR-4 ovarian = test system: OVCAR-4 ovarian
OVCAR-5 ovarian = test system: OVCAR-5 ovarian
OVCAR-8 ovarian = test system: OVCAR-8 ovarian
PC-3 prostate = test system: PC-3 prostate
RPMI-8226 leukemia = test system: RPMI-8226 leukemia
RXF 393 renal = test system: RXF 393 renal
SF-268 CNS = test system: SF-268 CNS
SF-295 CNS = test system: SF-295 CNS
SF-539 CNS = test system: SF-539 CNS
SK-MEL-2 melanoma = test system: SK-MEL-2 melanoma
SK-MEL-28 melanoma = test system: SK-MEL-28 melanoma
SK-MEL-5 melanoma = test system: SK-MEL-5 melanoma
SK-OV-3 ovarian = test system: SK-OV-3 ovarian
SN12C renal = test system: SN12C renal
SNB-19 CNS = test system: SNB-19 CNS
SNB-75 CNS = test system: SNB-75 CNS
SR leukemia = test system: SR leukemia
SW-620 colon = test system: SW-620 colon
T-47D breast = test system: T-47D breast
TK-10 renal = test system: TK-10 renal
U251 CNS = test system: U251 CNS
UACC-257 melanoma = test system: UACC-257 melanoma
UACC-62 melanoma = test system: UACC-62 melanoma
UO-31 renal = test system: UO-31 renal

`COc1cc(Nc2ccnc(NCCNc3ccnc4cc(Cl)ccc34)n2)cc(OC)c1` was tested, and the GI50 (786-0 renal) was 1560 nM, the TGI (786-0 renal) was 2900 nM and the GI50 (A498 renal) was 175 nM. For the same compound, the TGI (A498 renal) was 2200 nM, the GI50 (A549 NSCLC) was 3230 nM and the TGI (A549 NSCLC) was 14800 nM. For the same compound, the GI50 (ACHN renal) was 1950 nM, the TGI (ACHN renal) was 5160 nM and the GI50 (BT-549 breast) was 1860 nM. The TGI (BT-549 breast) was 4240 nM, the GI50 (CAKI-1 renal) was 2170 nM and the TGI (CAKI-1 renal) was 6590 nM. The GI50 (CCRF-CEM leukemia) was 2450 nM, the TGI (CCRF-CEM leukemia) was 9690 nM and the GI50 (COLO 205 colon) was 1610 nM. It also gave a TGI (COLO 205 colon) of 3460 nM, a GI50 (DU-145 prostate) of 4030 nM and a TGI (DU-145 prostate) of 15600 nM. For the same compound, the GI50 (HCC-2998 colon) was 1750 nM, the TGI (HCC-2998 colon) was 3780 nM and the GI50 (HCT-116 colon) was 830 nM. For the same compound, the TGI (HCT-116 colon) was 2580 nM, the GI50 (HCT-15 colon) was 1370 nM and the TGI (HCT-15 colon) was 3420 nM. For the same compound, the GI50 (HL-60(TB) leukemia) was 2220 nM, the TGI (HL-60(TB) leukemia) was 5280 nM and the GI50 (HOP-62 NSCLC) was 2140 nM. It also gave a TGI (HOP-62 NSCLC) of 8360 nM, a GI50 (HOP-92 NSCLC) of 811 nM and a TGI (HOP-92 NSCLC) of 4450 nM. The GI50 (HS 578T breast) was 2180 nM, the TGI (HS 578T breast) was 5930 nM and the GI50 (HT29 colon) was 588 nM. For the same compound, the TGI (HT29 colon) was 3760 nM, the GI50 (IGROV1 ovarian) was 1890 nM and the TGI (IGROV1 ovarian) was 5560 nM. The GI50 (K-562 leukemia) was 843 nM, the TGI (K-562 leukemia) was 3820 nM and the GI50 (KM12 colon) was 3340 nM. For the same compound, the TGI (KM12 colon) was 14200 nM, the GI50 (LOX IMVI melanoma) was 1470 nM and the TGI (LOX IMVI melanoma) was 2970 nM. It also gave a GI50 (MALME-3M melanoma) of 1860 nM, a TGI (MALME-3M melanoma) of 3690 nM and a GI50 (MCF7 breast) of 1610 nM. The TGI (MCF7 breast) was 3970 nM, the GI50 (MDA-MB-231 breast) was 1410 nM and the TGI (MDA-MB-231 breast) was 3740 nM. The GI50 (MDA-MB-435) was 1550 nM, the TGI (MDA-MB-435) was 2950 nM and the GI50 (MOLT-4 leukemia) was 1840 nM. It also gave a TGI (MOLT-4 leukemia) of 8900 nM, a GI50 (NCI-H226 lung) of 2950 nM and a TGI (NCI-H226 lung) of 22800 nM. It also gave a GI50 (NCI-H23 lung) of 1860 nM, a TGI (NCI-H23 lung) of 14100 nM and a GI50 (NCI-H460 lung) of 1450 nM. It also gave a TGI (NCI-H460 lung) of 5310 nM, a GI50 (NCI-H522 lung) of 1780 nM and a TGI (NCI-H522 lung) of 5190 nM. It also gave a GI50 (NCI/ADR-RES ovarian) of 3790 nM, a TGI (NCI/ADR-RES ovarian) of 16400 nM and a GI50 (OVCAR-3 ovarian) of 1890 nM. The TGI (OVCAR-3 ovarian) was 5030 nM, the GI50 (OVCAR-4 ovarian) was 1330 nM and the TGI (OVCAR-4 ovarian) was 6560 nM. For the same compound, the GI50 (OVCAR-5 ovarian) was 1660 nM, the TGI (OVCAR-5 ovarian) was 6270 nM and the GI50 (OVCAR-8 ovarian) was 2520 nM. It also gave a TGI (OVCAR-8 ovarian) of 11500 nM, a GI50 (PC-3 prostate) of 2510 nM and a TGI (PC-3 prostate) of 14400 nM. The GI50 (RPMI-8226 leukemia) was 1410 nM, the TGI (RPMI-8226 leukemia) was 4450 nM and the GI50 (RXF 393 renal) was 1380 nM. For the same compound, the TGI (RXF 393 renal) was 2940 nM, the GI50 (SF-268 CNS) was 3100 nM and the TGI (SF-268 CNS) was 12500 nM. It also gave a GI50 (SF-295 CNS) of 961 nM, a TGI (SF-295 CNS) of 2430 nM and a GI50 (SF-539 CNS) of 1480 nM. For the same compound, the TGI (SF-539 CNS) was 2860 nM, the GI50 (SK-MEL-2 melanoma) was 1910 nM and the TGI (SK-MEL-2 melanoma) was 4180 nM. For the same compound, the GI50 (SK-MEL-28 melanoma) was 1760 nM, the TGI (SK-MEL-28 melanoma) was 3290 nM and the GI50 (SK-MEL-5 melanoma) was 1690 nM. For the same compound, the TGI (SK-MEL-5 melanoma) was 3240 nM, the GI50 (SK-OV-3 ovarian) was 8580 nM and the TGI (SK-OV-3 ovarian) was 21000 nM. It also gave a GI50 (SN12C renal) of 2190 nM, a TGI (SN12C renal) of 12400 nM and a GI50 (SNB-19 CNS) of 2380 nM. For the same compound, the TGI (SNB-19 CNS) was 8900 nM, the GI50 (SNB-75 CNS) was 1730 nM and the TGI (SNB-75 CNS) was 3520 nM. It also gave a GI50 (SR leukemia) of 1650 nM, a TGI (SR leukemia) of 6850 nM and a GI50 (SW-620 colon) of 1660 nM. The TGI (SW-620 colon) was 4180 nM, the GI50 (T-47D breast) was 1730 nM and the TGI (T-47D breast) was 4450 nM. The GI50 (TK-10 renal) was 3720 nM, the TGI (TK-10 renal) was 9710 nM and the GI50 (U251 CNS) was 1610 nM. For the same compound, the TGI (U251 CNS) was 4270 nM, the GI50 (UACC-257 melanoma) was 1820 nM and the TGI (UACC-257 melanoma) was 3870 nM. The GI50 (UACC-62 melanoma) was 1600 nM, the TGI (UACC-62 melanoma) was 3080 nM and the GI50 (UO-31 renal) was 1190 nM. It also gave a TGI (UO-31 renal) of 2810 nM.

Reference: PubChem BioAssay (NCI)
